Results taken from patent US6184422A, “Cyclohexanediol derivatives” (priority 1998, dated 2001).

Columns and labels:
[1] = The Mouse Model: epidermal thickening (acanthosis) in hairless mice; details: mouse, in vivo, po
[2] = test system: epidermal thickening (acanthosis) in hairless mice; experiment: as above; details: for ED50: Mus musculus, po, read-out: ED50: dose causing half-maximal epidermal thickening; for ratio (TI) HTD/ED50: HTDpo/ED50
[3] = Calcium Liability (Tolerance Test in Mice); details: for MTD: mouse, in vivo, sc; for HTD/VDR: ratio HTDsc mouse (μg/kg) / VDR act ED50 (nanomolar)
Excerpt: 1. Calcium Liability (Tolerance Test in Mice)
This test gives a global picture of calcemic liability. Profound changes in calcium homeostasis strongly affect the weight development of the animals. This parameter was used as a primary test for tolerance. […] Body weight was registered just before and at the end of a 5 day treatment period.

human VDR = target: T1, human VDR (Homo sapiens, UniProt P11473); experiment: VDR Activation (transcription activation assay in COS cells, luciferase reporter); type: cell-based; details: COS cells cotransfected with human VDR and VDRE3/luciferase reporter; read-out: VDR act (ED50, nanomolar)
T1 construct: expressed in transfected cells; host or cells: COS cells, expression vector pSG5
T1 sequence (P11473 1-427): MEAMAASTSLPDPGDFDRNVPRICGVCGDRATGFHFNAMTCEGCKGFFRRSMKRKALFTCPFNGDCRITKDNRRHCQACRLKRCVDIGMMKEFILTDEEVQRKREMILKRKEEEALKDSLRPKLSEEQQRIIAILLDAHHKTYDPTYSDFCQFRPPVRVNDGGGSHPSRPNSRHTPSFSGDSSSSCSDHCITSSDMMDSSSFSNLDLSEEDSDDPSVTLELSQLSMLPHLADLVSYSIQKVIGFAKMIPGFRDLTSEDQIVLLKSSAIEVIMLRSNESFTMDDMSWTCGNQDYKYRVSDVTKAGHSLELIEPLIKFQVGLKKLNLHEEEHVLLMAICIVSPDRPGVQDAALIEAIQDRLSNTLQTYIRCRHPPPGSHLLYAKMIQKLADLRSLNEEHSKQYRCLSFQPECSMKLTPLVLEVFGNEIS
Excerpt: In order to measure the activation of the vitamin D receptor (VDR) by vitamin D analogs in cells a transcription activation assay was used. COS cells were cotransfected with the human VDR (expressed in pSG5) and a reporter gene containing three response elements (VDRE3) from the rat osteocalcine gene, the thymidine kinase basal promoter, and the luciferase reporter gene, respectively.

[4] = test system: epidermal proliferation in minipigs; experiment: animal or person; details: for minimal effective dose: Sus scrofa, 168 h, read-out: Effective dose (dose that increases the normal LI at least 50%); for minimal effective dose / Calcemic dose: po; for Calcemic dose: minipig, in vivo, 10080 min; for TI (ratio Calc./Eff.): oral, calcemic dose / effective dose
Method: Orally administered vitamin D analogs can lead to epidermal proliferation in minipigs. This skin effect is considered as indicative for an antipsoriatic potential of vitamin D analogs. […] The pigs were daily observed as to adverse effects such as behavior, mobility, stool. At day seven bromodeoxyuridine (4 mg/kg) was injected intravenously into the treated pigs and 2 hours later skin biopsies (6 mm diameter) and blood were taken for analysis. The skin biopsies were fixed in formalin, and paraffin sections were prepared using standard procedures. Using standard immuno-histochemical techniques, cells in the S-phase (DNA synthesis phase) were labelled by the binding of a specific monoclonal antibody against the thymidine analogue bromodeoxyuridine. The number of labelled epidermal cells per unit of length along the surface was taken as a measure of epidermal proliferative activity (labelings index LI). Clinical chemistry was performed using Cobas Mira.
*The effective dose is the dose that increases the normal LI at least 50%

in vivo = details: mouse, po

CC(C)(CCC/C=C/C=C1C[C@@H](O)C[C@H](O)C1)CCCC(O)(C(F)(F)F)C(F)(F)F [Compound E, (1R,3R)-5-[(2E)-12,12,12-trifluoro-11-hydroxy-7,7-dimethyl-11-trifluoromethyl-dodec-2-enylidene)-cyclohexane-1,3-diol]
MTD [1]: 0.04 mg/kg | ED50 [2]: 0.2 mg/kg | ratio (TI) HTD/ED50 ([2]; hairless mice, oral): 0.2 | MTD [3]: 0.1 mg/kg | HTD/VDR [3]: 15 | EC50 (human VDR): 6.6 nM

CC(C)(O)CCCC(C)(C)CCC/C=C/C=C1C[C@@H](O)C[C@H](O)C1 [H, (2E)-(1R,3R)-5-(11-hydroxy-7,7,11-trimethyl-dodeca-2-enylidene)-cyclohexane-1,3-diol]
MTD [3]: > 5 mg/kg | HTD/VDR [3]: 18 | EC50 (human VDR): 280 nM

CC(C)(C/C=C\C(O)(C(F)(F)F)C(F)(F)F)CCC/C=C/C=C1C[C@@H](O)C[C@H](O)C1 [A, (1R,3R)-5-[(2E,9Z)-12,12,12-trifluoro-11-hydroxy-7,7-dimethyl-11-trifluoromethyl-dodeca-2,9-dienylidene)-cyclohexane-1,3-diol]
MTD [1]: 1 mg/kg | ED50 [2]: 7.5 mg/kg | ratio (TI) HTD/ED50 ([2]; hairless mice, oral): 0.13 | minimal effective dose [4]: 0.1 mg/kg | Calcemic dose [4]: 5 mg/kg | TI (ratio Calc./Eff.) ([4]; minipigs): 50 | MTD [3]: 2.5 mg/kg | HTD/VDR [3]: 14 | EC50 (human VDR): 180 nM

C=C1/C(=C\C=C\CCCC(C)(C)CCCC(C)(C)O)C[C@@H](O)C[C@@H]1O [G, (Z)-(1R,3S)-5-[(E)-11-hydroxy-7,7,11-trimethyl-dodec-2-enylidene]-4-methylene-cyclohexane-1,3-diol]
ED50 [2]: 60 mg/kg | ratio (TI) HTD/ED50 ([2]; hairless mice, oral): 0.33 | MTD [3]: > 5 mg/kg | HTD/VDR [3]: 45 | MTD (in vivo): 20 mg/kg | EC50 (human VDR): 110 nM

C=C1/C(=C\C=C\CCCC(C)(C)C/C=C/C(O)(C(F)(F)F)C(F)(F)F)C[C@@H](O)C[C@@H]1O [C, (Z)-(1R,3S)-5-((2E,9E)-12,12,12-trifluoro-11-trifluoromethyl-11-hydroxy-7,7-dimethyl-dodec-2,9-dienylidene)-4-methylene-cyclohexane-1,3-diol]
MTD [1]: 0.06 mg/kg | ED50 [2]: 0.45 mg/kg | ratio (TI) HTD/ED50 ([2]; hairless mice, oral): 0.13 | MTD [3]: 0.2 mg/kg | HTD/VDR [3]: 50 | EC50 (human VDR): 4 nM

CC(C)(C/C=C/C(O)(C(F)(F)F)C(F)(F)F)CCC/C=C/C=C1C[C@@H](O)C[C@H](O)C1 [D, (1R,3R)-5-[(2E,9E)-12,12,12-trifluoro-11-trifluoromethyl-11-hydroxy-7,7-dimethyl-dodeca-2,9-dienylidene]-cyclohexane-1,3-diol]
MTD [1]: 0.05 mg/kg | ED50 [2]: 0.5 mg/kg | ratio (TI) HTD/ED50 ([2]; hairless mice, oral): 0.1 | MTD [3]: 0.1 mg/kg | HTD/VDR [3]: 18 | EC50 (human VDR): 5.7 nM

C=C1/C(=C\C=C2/CCC[C@]3(C)[C@@H]([C@H](C)CCCC(C)(C)O)CC[C@@H]23)C[C@@H](O)C[C@@H]1O [Calcitriol, reference compound]
ED50 [2]: 0.5 mg/kg | skin effects at the highest tolerated dose (in words) ([2]; hairless mice, oral, calcitriol animals treated for three days): not able to elicit skin effects | minimal effective dose [4]: > 0.0225 mg/kg | Calcemic dose [4]: 0.003 mg/kg | epidermal hyperproliferation (in words) ([4]; minipigs, even at 9 times the dose that induces hypercalcemia): did not induce hyperproliferation

C=C1/C(=C\C=C\CCCC(C)(C)C/C=C\C(O)(C(F)(F)F)C(F)(F)F)C[C@@H](O)C[C@@H]1O [B, (Z)-(1R,3S)-4-methylene-5-[(2E,9Z)-12,12,12-trifluoro-11-hydroxy-7,7-dimethyl-11-trifluoromethyl-dodeca-2,9-dienylidene]-cyclohexane-1,3-diol]
MTD [1]: 0.4 mg/kg | ED50 [2]: 3 mg/kg | ratio (TI) HTD/ED50 ([2]; hairless mice, oral): 0.13 | minimal effective dose [4]: 1 mg/kg | Calcemic dose [4]: 2 mg/kg | TI (ratio Calc./Eff.) ([4]; minipigs): 2 | MTD [3]: 3 mg/kg | HTD/VDR [3]: 60 | EC50 (human VDR): 50 nM

C=C1/C(=C\C=C\CCCC(C)(C)CC#CC(O)(C(F)(F)F)C(F)(F)F)C[C@@H](O)C[C@@H]1O [J, (Z)-(1R,3S)-4-methylene-5-[(E)-12,12,12-trifluoro-11-hydroxy-7,7-dimethyl-11-trifluoromethyl-dodec-2-en-9-ynylidene]-cyclohexane-1,3-diol]
MTD [1]: 0.07 mg/kg | ED50 [2]: 0.7 mg/kg | ratio (TI) HTD/ED50 ([2]; hairless mice, oral): 0.1 | minimal effective dose [4]: 0.108 mg/kg | Calcemic dose [4]: > 0.324 mg/kg | TI (ratio Calc./Eff.) ([4]; minipigs): > 3 | MTD [3]: 0.31 mg/kg | HTD/VDR [3]: 65 | EC50 (human VDR): 4.8 nM

CC(C)(O)C#CCC(C)(C)CCC/C=C/C=C1C[C@@H](O)C[C@H](O)C1 [K, (10E)-(3R,5R)-12-(3,5-dihydroxy-cyclohexylidene)-6,6-dimethyl-2-methyl-dodec-10-en-3-yn-2-ol]
MTD [3]: > 5 mg/kg | HTD/VDR [3]: > 23 | EC50 (human VDR): 220 nM

CC(C)(CC#CC(O)(C(F)(F)F)C(F)(F)F)CCC/C=C/C=C1C[C@@H](O)C[C@H](O)C1 [I, (E)-(1R,3R)-5-[12,12,12-trifluoro-11-hydroxy-7,7-dimethyl-11-trifluoromethyl-dodec-2-en-9-ynylidene]-cyclohexane-1,3-diol]
MTD [1]: 0.1 mg/kg | ED50 [2]: 0.8 mg/kg | ratio (TI) HTD/ED50 ([2]; hairless mice, oral): 0.125 | minimal effective dose [4]: 0.036 mg/kg | Calcemic dose [4]: 0.2 mg/kg | TI (ratio Calc./Eff.) ([4]; minipigs): 6 | MTD [3]: 0.333 mg/kg | HTD/VDR [3]: 26 | EC50 (human VDR): 13 nM

C=C1/C(=C\C=C\CCCC(C)(C)CCCC(O)(C(F)(F)F)C(F)(F)F)C[C@@H](O)C[C@@H]1O [F, (Z)-(1R,3S)-5-[(2E)-12,12,12-trifluoro-11-hydroxy-7,7-dimethyl-11-trifluoromethyl-dodec-2-enylidene]-4-methylene-cyclohexane-1,3-diol]
MTD [1]: 0.08 mg/kg | ED50 [2]: 0.2 mg/kg | ratio (TI) HTD/ED50 ([2]; hairless mice, oral): 0.4 | minimal effective dose [4]: 0.003 mg/kg | Calcemic dose [4]: 0.015 mg/kg | TI (ratio Calc./Eff.) ([4]; minipigs): 5 | MTD [3]: 0.08 mg/kg | HTD/VDR [3]: 20 | EC50 (human VDR): 4 nM
